The results in this text go back to ChEMBL document CHEMBL4411343, “Synthesis and biological evaluation of novel N-substituted nipecotic acid derivatives with a cis-alkene spacer as GABA uptake inhibitors” (Bioorg Med Chem, 2019).

As a reminder, the pIC50 is −log10 of the IC50, conventionally taken in molar units. Broadly, the Ki is a measure of affinity in units of concentration, obtained from inhibition or displacement. Read a low Ki as a stronger hold on the target. One may read the IC50 as the concentration at which inhibition is half-maximal.

The target of test [1] is Sodium- and chloride-dependent GABA transporter 2 (Mus musculus). Description: Inhibition of mouse GAT3 expressed in HEK293 cells assessed as reduction in [3H]GABA uptake preincubated for 25 mins followed by [3H]GABA addition and measured after 4 mins by microbeta liquid scintillation counting method.
The target in test [2] is Sodium- and chloride-dependent betaine transporter (Mus musculus). In words: Inhibition of mouse GAT2 expressed in HEK293 cells assessed as reduction in [3H]GABA uptake preincubated for 25 mins followed by [3H]GABA addition and measured after 10 mins by microbeta liquid scintillation counting method.
For test [3], the target named is T1, Sodium- and chloride-dependent GABA transporter 1 (Mus musculus, UniProt P31648). Description: Displacement of NO711 from mouse GAT1 expressed in stable HEK293 cell membranes preincubated for 10 mins followed by NO711 addition and measured after 40 mins by LC-ESI-MS/MS analysis.
Test [4] concerns the target T1, Sodium- and chloride-dependent GABA transporter 1. In words: Inhibition of mouse GAT1 expressed in HEK293 cells assessed as reduction in [3H]GABA uptake preincubated for 25 mins followed by [3H]GABA addition and measured after 4 mins by microbeta liquid scintillation counting method. The format is cell-based.
Another test deals with T2, GABA transporter 4 (Mus musculus, UniProt P31650).
T2 sequence (P31650 whole entry): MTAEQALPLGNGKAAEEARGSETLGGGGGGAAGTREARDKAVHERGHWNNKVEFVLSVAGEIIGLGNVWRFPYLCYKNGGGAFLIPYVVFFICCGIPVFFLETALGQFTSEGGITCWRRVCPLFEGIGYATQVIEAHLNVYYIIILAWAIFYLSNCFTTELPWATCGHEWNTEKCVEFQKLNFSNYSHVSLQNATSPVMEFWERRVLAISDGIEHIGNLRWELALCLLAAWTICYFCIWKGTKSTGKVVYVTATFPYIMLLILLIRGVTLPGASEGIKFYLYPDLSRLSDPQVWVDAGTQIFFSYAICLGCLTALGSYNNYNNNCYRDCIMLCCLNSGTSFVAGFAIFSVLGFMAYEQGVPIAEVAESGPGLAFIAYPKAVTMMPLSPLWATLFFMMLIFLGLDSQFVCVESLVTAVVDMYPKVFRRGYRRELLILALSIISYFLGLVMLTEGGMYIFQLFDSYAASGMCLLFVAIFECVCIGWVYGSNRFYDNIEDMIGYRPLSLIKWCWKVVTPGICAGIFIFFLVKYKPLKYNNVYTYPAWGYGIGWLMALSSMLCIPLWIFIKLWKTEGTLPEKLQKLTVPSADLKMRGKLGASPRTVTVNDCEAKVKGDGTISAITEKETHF
Description: Inhibition of mouse GAT4 expressed in HEK293 cells assessed as reduction in [3H]GABA uptake preincubated for 25 mins followed by [3H]GABA addition and measured after 4 mins by microbeta liquid scintillation counting method. The format is cell-based.

Test [5] has as its system Sodium- and chloride-dependent GABA transporter 2 (Mus musculus). Description: Inhibition of mouse GAT3 expressed in HEK293 cells assessed as remaining [3H]GABA uptake at 100 uM preincubated for 25 mins followed by [3H]GABA addition and measured after 4 mins by liquid scintillation counting method relative to control.
Test [6] relates to Sodium- and chloride-dependent betaine transporter (Mus musculus). In words: Inhibition of mouse GAT2 expressed in HEK293 cells assessed as remaining [3H]GABA uptake at 100 uM preincubated for 25 mins followed by [3H]GABA addition and measured after 10 mins by liquid scintillation counting method relative to control.
Test [7] deals with T1, Sodium- and chloride-dependent GABA transporter 1. In words: Inhibition of mouse GAT1 expressed in HEK293 cells assessed as remaining [3H]GABA uptake at 100 uM preincubated for 25 mins followed by [3H]GABA addition and measured after 4 mins by liquid scintillation counting method relative to control. It is filed as cell-based. To be noted: read-out: Activity.
Test [8] shares this target. Description: Displacement of NO711 from mouse GAT1 expressed in stable HEK293 cells assessed as remaining specific NO711 binding level preincubated at 100 uM for 10 mins followed by NO711 addition and measured after 40 mins by LC-ESI-MS/MS analysis. It is filed as cell-based. The conditions noted are these: read-out: Activity.
Test [9] deals with T3, GABA transporter 4 (Mus musculus) (UniProt P31650).
T3 sequence (whole entry): T2 sequence (P31650 whole entry)
In words: Inhibition of mouse GAT4 expressed in HEK293 cells assessed as remaining [3H]GABA uptake at 100 uM preincubated for 25 mins followed by [3H]GABA addition and measured after 4 mins by liquid scintillation counting method relative to control. The format is cell-based.

For the molecule `COc1ccc(C(C#CCN2CCCC(C(=O)O)C2)(c2ccc(OC)cc2)c2ccc(OC)cc2)cc1` (racemic), the pIC50 in test [1] turned out to be 4.61; in test [2] it was 4.36.

For `O=C(O)C1CCCN(C/C=C\CC(c2ccccc2)(c2ccccc2)c2ccccc2)C1` (racemic), in test [3], the Ki was 0.513 µM. For the same molecule, the IC50 in [4] was 1 µM; on GABA transporter 4 it was 15.1 µM. The activity at 100 µM is 56% in test [5] and 70% in test [6].

In test [3], `COc1ccc(C(/C=C\CN2CCCC(C(=O)O)C2)c2ccc(OC)cc2)cc1` (racemic) gave a Ki of 26.3 µM. Further, the results for the activity at 100 µM in [7], in [5] and in test [6] were 62%, 72% and 68%, respectively. The IC50 at GABA transporter 4 was 49 µM.

Molecule `COc1ccc(CC(/C=C\CN2CCCC(C(=O)O)C2)(c2ccc(OC)cc2)c2ccc(OC)cc2)cc1` (racemic) had a Ki in [3] of 25.7 µM. Besides, the concentration for half-maximal inhibition (IC50) in test [4] was 74.1 µM; at GABA transporter 4 it was 57.5 µM. Moreover, the activity at 100 µM in [6] is 65%.

Take `COc1ccc(C(/C=C\CN2CCCC(C(=O)O)C2)(c2ccc(OC)cc2)c2nccs2)cc1` (racemic): the activity at 100 µM amounted to 78% in test [8], 69% in [7], 78% in [5] and 67% in test [6]. In addition, the Activity in test [9] worked out at 83%.

In turn, `COc1ccc(C(/C=C\CCN2CCCC(C(=O)O)C2)(c2ccc(OC)cc2)c2ccc(OC)cc2)cc1` (racemic) gave a Ki in test [3] of 23.4 µM. Also, the IC50 in test [4] was 30.9 µM; on GABA transporter 4 it was 16.2 µM. Moreover, the activity at 100 µM in test [6] came to 63%.

As to `COc1ccc(C(/C=C\CN2CCCC(C(=O)O)C2)(c2ccc(OC)cc2)c2ccc(OC)cc2)cc1` (racemic), the affinity in [3] corresponds to a Ki of 17.8 µM.

Molecule `COc1ccc(C(/C=C\CN2CCCC(C(=O)O)C2)(Cc2ccccc2)c2ccc(OC)cc2)cc1` (racemic) showed a Ki in [3] of 41.7 µM. The IC50 was 38 µM in test [4] and 63.1 µM on GABA transporter 4. In addition, in test [5], the activity at 100 µM was determined as 57%.

For `O=C(O)C1CCCN(CC/C=C\C(c2ccccc2)(c2ccccc2)c2ccccc2)C1` (racemic), the affinity in [3] corresponds to a Ki of 7.41 µM. The IC50 in [4] was 40.7 µM; at GABA transporter 4, 17.4 µM.

Take `COc1ccc(C(/C=C\CN2CCCC(C(=O)O)C2)(c2ccc(OC)cc2)c2ccsc2)cc1` (racemic): the activity at 100 µM in test [8] stood at 62%; in test [5], 49%. Moreover, the IC50 in [4] is 79.4 µM; on GABA transporter 4, 33.1 µM.

In turn, `COc1ccc(C(/C=C\CN2CCCC(C(=O)O)C2)(c2ccc(OC)cc2)c2ccc3c(c2)OCO3)cc1` (racemic) gave a Ki in test [3] of 53.7 µM. Further, the half-maximal inhibitory concentration (IC50) in test [4] is 95.5 µM; on GABA transporter 4, 10 µM.

`COc1ccc(C(C/C=C\CN2CCCC(C(=O)O)C2)(c2ccc(OC)cc2)c2ccc(OC)cc2)cc1` (racemic) gave a Ki in test [3] of 24 µM. The figures for the concentration for half-maximal inhibition (IC50) (in test [4]; on GABA transporter 4) were 41.7 µM and 61.7 µM, respectively. Also, the activity at 100 µM in test [6] turned out to be 52%.

Consider `COc1ccc(C(O)(/C=C\CN2CCCC(C(=O)O)C2)c2ccc(OC)cc2)cc1` (racemic), for which the activity at 100 µM stood at 53% in [8], 81% in test [7], 97% in test [5] and 85% in test [6]. In test [9], the Activity is 80%.
